System: Friend Leukämie Virus
Assay: FLV model of the mouse (Friend leukaemia virus infection, relative spleen weight)
Format: in vivo
Conditions: i.p.; for rel.Milzgewicht in % Körpergew.: start 2 days after infection, spleen 14 days after infection
Text: Da für die HIV-Infektion des Menschen kein überzeugendes Infektionsmodell bei Labortieren existiert, muß bei der Prüfung von Chemotherapeutika auf Infektionen mit anderen Retroviren zurückgegriffen werden. Im vorliegenden Falle wurde die Infektion der Maus mit dem Friend Leukämie Virus gewählt.
Normale Labormäuse (NMRI = Naval Medical Research Institute) wurden durch intravenöse Injektion mit Friend-Virus enthaltendem Mäuseserum infiziert. Bei den unbehandelten Kontrolltieren entwickelt sich als Symptom der Infektion innerhalb von 2 Wochen bzw. 3 Wochen eine deutliche Vergrößerung von Milz und Leber. Die Behandlung erfolgt über 10 Tage bei intraperitonealer Applikation und über 16 Tage bei oraler Applikation der Testsubstanzen. Bei intraperitonealer Gabe der Testsubstanzen beginnt die Behandlung 48 Stunden nach der Infektion, bei peroraler Gabe der Testsubstanz 4 Tage vor der Infektion. Am 14. Tag nach Infektion werden die Tiere durch Luxation der Halswirbel getötet und geöffnet. Die Milz wird entnommen und gewogen. Als Meßparameter der therapeutischen Wirksamkeit wird das Milzgewicht der behandelten Tiere mit den der unbehandelten Infektionskontrolle in Relation gesetzt.
Für die orale Applikation werden die Prüfsubstanzen in Trinkwasser gelöst. Alle 24 Stunden werden die Trinkwasserbehälter mit jeweils 100 ml Inhalt gewechselt. Aus dem täglich ermittelten Verbrauch an Trinkwasser pro Versuchskollektiv wird die durchschnittliche Dosismenge errechnet, die einer Maus pro 24 Stunden appliziert wurde.
Während bei uninfizierten, ausgewachsenen Labormäusen (20 - 24 g Körpergewicht) die Milz weniger als 1 % des Körpergewichtes wiegt, erreicht bei infizierten Tieren die Milz am Ende des Versuchs etwa bis zu 10 % des Körpergewichtes.
Als Vergleichspräparate dienen Suramin (= 3,3′-Ureylen-bis-(8-(3-benzamido-4-methylbenzamido)-naphthalin-1,3,5-trisulfonsäure|) bei intraperitonealer Gabe bzw. Pentosanpolysulfat bei intraperitonealer und oraler Gabe.

Cc1ccc(C(=O)Nc2ccc(S(=O)(=O)O)c3cc(S(=O)(=O)O)cc(S(=O)(=O)O)c23)cc1NC(=O)c1cccc(NC(=O)Nc2cccc(C(=O)Nc3cc(C(=O)Nc4ccc(S(=O)(=O)O)c5cc(S(=O)(=O)O)cc(S(=O)(=O)O)c45)ccc3C)c2)c1 [Suramin, 3,3′-Ureylen-bis-(8-(3-benzamido-4-methylbenzamido)-naphthalin-1,3,5-trisulfonsäure|)]
rel.Milzgewicht in % Körpergew. (10 x 0,1 mg/Maus, second series (Kontrolle 7,25)): 5,68 % Körpergew. | Anzahl überlebender Mäuse n (10 x 0,1 mg/Maus, second series (Kontrolle 10)): 10 | rel.Milzgewicht in % Körpergew. (10 x 1,0 mg/Maus, first series (Kontrolle 6,41)): 4,96 % Körpergew. | Anzahl überlebender Mäuse n (10 x 1,0 mg/Maus, first series (Kontrolle 10)): 10
